These results are taken from article PMC6804459 (Acta Pharmaceutica Sinica. B, 2019).

The test addresses recombinant human PrP (rhPrP, PrP^C) (Homo sapiens, UniProt P04156). Nature of the test: biochemical. In kind it is binding.

pKd: −log10 of the molar value.

For `Cc1cc(Nc2ccc(NC(=O)c3ccc(Nc4ccnc5ccccc45)cc3)cc2)nc(N)n1` [SGI-1027], the pKd is 5.79.

What is called pKd is −log10 of the Kd, conventionally taken in molar units.
